# Measured values reported in PubChem BioAssay AID330 (DTP/NCI, 2004).
# Inconclusive results and toxic doses are left out.
# Test system: P388 leukemia ip, CD2F1 mice, survival T/C
# Test: NCI In Vivo Anticancer Drug Screen. Data for tumor model P388 Leukemia (intraperitoneal) in CD2F1 (CDF1) mice
# Conditions: endpoint: median survival time, higher = longer survival
# Method in brief: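 Mice carrying the transplanted tumor received test compound or vehicle. Survival was recorded in each group, and the value is the treated-group measurement divided by that of the vehicle-treated control group.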
# [1] = dose: 100.0 mg/kg/injection, schedule: Q04DX003 (ip), vehicle: saline
# [2] = dose: 200.0 mg/kg/injection, schedule: Q04DX003 (ip), vehicle: saline
# [3] = dose: 50.0 mg/kg/injection, schedule: Q01DX005 (ip), vehicle: Klucel (hydroxypropylcellulose) (HPC)
# [4] = dose: 100.0 mg/kg/injection, schedule: Q01DX005 (ip), vehicle: Klucel (hydroxypropylcellulose) (HPC)
# [5] = dose: 200.0 mg/kg/injection, schedule: Q01DX005 (ip), vehicle: Klucel (hydroxypropylcellulose) (HPC)
compound,measurement,setting,value
Cc1[nH]nc2c(NCc3ccco3)ncnc12,T/C,"dose: 25.0 mg/kg/injection, schedule: Q04DX003 (ip), vehicle: saline",98 % of control
same,T/C,"dose: 50.0 mg/kg/injection, schedule: Q04DX003 (ip), vehicle: saline",104 % of control
same,T/C,[1],101 % of control
same,T/C,[2],95 % of control
O=C1NC(O)c2cc(O)ccc2O1 (centres undefined),T/C,[3],100 % of control
same,T/C,[4],100 % of control
same,T/C,[5],111 % of control
Cc1cc(N=Cc2c(CO)cnc(C)c2O)c(N=Cc2c(CO)cnc(C)c2O)cc1C.[Zn],T/C,"dose: 50.0 mg/kg/injection, schedule: Q01DX005 (ip), vehicle: saline with Tween-80",100 % of control
same,T/C,"dose: 100.0 mg/kg/injection, schedule: Q01DX005 (ip), vehicle: saline with Tween-80",99 % of control
same,T/C,"dose: 200.0 mg/kg/injection, schedule: Q01DX005 (ip), vehicle: saline with Tween-80",100 % of control
CO/N=C1\CC(C)N2C(=O)C(C(C)C)NC(=O)C(NC(=O)c3c4nc5c(C(=O)NC6C(=O)NC(C(C)C)C(=O)N7C(C)CC(O)C7C(=O)N(C)CC(=O)N(C)C(C(C)C)C(=O)OC6C)ccc(C)c5oc-4c(C)c(=O)c3N)C(CO)OC(=O)C(C)N(C)C(=O)CN(C)C(=O)C12 (centres undefined),T/C,"dose: 12.5 mg/kg/injection, schedule: Q01DX005 (ip), vehicle: saline with Tween-80",161 % of control
same,T/C,"dose: 25.0 mg/kg/injection, schedule: Q01DX005 (ip), vehicle: saline with Tween-80",180 % of control
O=C1CSCC(=O)OCCOCCOCCOCCO1,T/C,[1],100 % of control
same,T/C,[2],101 % of control
same,T/C,"dose: 400.0 mg/kg/injection, schedule: Q04DX003 (ip), vehicle: saline",100 % of control
Cn1c(-c2ccccc2)cc2cc(CN)ccc21,T/C,"dose: 50.0 mg/kg/injection, schedule: Q01DX009 (ip), vehicle: Klucel (hydroxypropylcellulose) (HPC)",100 % of control
same,T/C,"dose: 100.0 mg/kg/injection, schedule: Q01DX009 (ip), vehicle: Klucel (hydroxypropylcellulose) (HPC)",100 % of control
Cc1ccc(NC(=O)COc2ccc(Cl)cc2Cl)c(C)c1,T/C,"dose: 100.0 mg/kg/injection, schedule: Q04DX003 (ip), vehicle: saline with Tween-80",104 % of control
same,T/C,"dose: 200.0 mg/kg/injection, schedule: Q04DX003 (ip), vehicle: saline with Tween-80",95 % of control
same,T/C,"dose: 400.0 mg/kg/injection, schedule: Q04DX003 (ip), vehicle: saline with Tween-80",90 % of control
N#CC(C(=O)O)C1(c2ccccc2)CCCCC1 (centres undefined),T/C,"dose: 50.0 mg/kg/injection, schedule: Q01DX009 (ip), vehicle: saline with Tween-80",101 % of control
same,T/C,"dose: 100.0 mg/kg/injection, schedule: Q01DX009 (ip), vehicle: saline with Tween-80",93 % of control
same,T/C,"dose: 200.0 mg/kg/injection, schedule: Q01DX009 (ip), vehicle: saline with Tween-80",105 % of control
COC(=O)CC1C2(C)C3=C(C)C(c4ccoc4)CC3OC2C2OC(=O)C3(C)C=CC(=O)C1(C)C23 (centres undefined),T/C,"dose: 1.25 mg/kg/injection, schedule: Q01DX009 (ip), vehicle: Klucel (hydroxypropylcellulose) (HPC)",91 % of control
same,T/C,"dose: 2.5 mg/kg/injection, schedule: Q01DX009 (ip), vehicle: Klucel (hydroxypropylcellulose) (HPC)",105 % of control
same,T/C,"dose: 5.0 mg/kg/injection, schedule: Q01DX009 (ip), vehicle: Klucel (hydroxypropylcellulose) (HPC)",86 % of control
same,T/C,"dose: 10.0 mg/kg/injection, schedule: Q01DX009 (ip), vehicle: Klucel (hydroxypropylcellulose) (HPC)",86 % of control
same,T/C,"dose: 20.0 mg/kg/injection, schedule: Q01DX009 (ip), vehicle: Klucel (hydroxypropylcellulose) (HPC)",102 % of control
CC(Nc1ncccn1)Nc1ncccn1,T/C,"dose: 60.0 mg/kg/injection, schedule: Q01DX005 (ip), vehicle: Klucel (hydroxypropylcellulose) (HPC)",107 % of control
same,T/C,"dose: 120.0 mg/kg/injection, schedule: Q01DX005 (ip), vehicle: Klucel (hydroxypropylcellulose) (HPC)",102 % of control
same,T/C,"dose: 240.0 mg/kg/injection, schedule: Q01DX005 (ip), vehicle: Klucel (hydroxypropylcellulose) (HPC)",111 % of control
CCN(CC)c1ccc2c(C)cc(=O)oc2c1,T/C,"dose: 25.0 mg/kg/injection, schedule: Q04DX003 (ip), vehicle: DMSO",92 % of control
same,T/C,"dose: 50.0 mg/kg/injection, schedule: Q04DX003 (ip), vehicle: DMSO",88 % of control
CC1=NN(c2ccccc2)[As]2ON=C(c3ccc(Cl)cc3)C12 (centres undefined),T/C,[3],102 % of control
same,T/C,[4],103 % of control
same,T/C,[5],108 % of control
CCCCOC(=O)NC(=O)c1cc2cc(I)cc(I)c2oc1=O,T/C,"dose: 60.0 mg/kg/injection, schedule: Q01DX005 (ip), vehicle: saline with Tween-80",91 % of control
same,T/C,"dose: 120.0 mg/kg/injection, schedule: Q01DX005 (ip), vehicle: saline with Tween-80",94 % of control
same,T/C,"dose: 240.0 mg/kg/injection, schedule: Q01DX005 (ip), vehicle: saline with Tween-80",94 % of control
